Experiments:
[1] = system: RANKL-induced osteoclast differentiation in RAW 264.7 cells; assay: TRAP staining, RANKL-induced osteoclast differentiation (TRAP+ multinucleated cells); assay type: cell-based, murine; conditions: Mus musculus; for inhibition at 5 µM: RAW264.7, RAW 264.7 cells, RANKL (100 ng/mL), compounds at 5 μM, TRAP-positive multinucleated cells, read-out: Inhibition of MNCs (%); for IC50: RAW264.7, different concentrations of compound, FIG. 1A, read-out: TRAP inhibitory activity IC50
Experimental: (§1) The compounds 1 to 24 of the present invention is tested by three pharmacological activity tests as follows: (1) MTT assay to test the RAW264.7 cell (murine monocyte/macrophage cell line) viability; (2) Tartrate-resistant acid phosphatase (TRAP) staining and activity analysis to investigate the cell differentiation activity; (3) The activity test of bone resorption (Pit formation assay).
(§2) The synthesized difunisal derivatives, compounds 1 to 24, were pharmacologically tested to be identified the relationship between their structure and activity. Cell viability was measured by MTT assay in RAW 264.7 cells upon treatment with compounds at 5 μM. CC50 is the cytotoxic concentration that produces 50% (CC50) cell death. […] The multinucleated osteoclasts could be formed by RANKL-induced macrophage cell line […]. RAW 264.7 cells were cultured with the indicated in the presence of drug and RANKL (100 ng/mL). Numbers of TRAP-positive (TRAP^+) multinucleated cells (MNCs) were counted in the presence of RANKL to identify the relationship between osteoclast and bone formation. […] The compound 16 performed the best inhibitory effect in the TRAP staining. The compound 16 was a derivate from compound 4 and its structure was related to compound 4. Therefore, the compound 4 and 16 were performed by TRAP assay to evaluate the effect on osteoclast differentiation by different concentration of compounds. […] According to above result, it can be speculated that: (1) Due to different substitutes on benzene ring of difunisal, the inhibitory ability of RANKL-induced osteoclast differentiation would be different. (2) Due to the electron-withdrawing group substitutes of R1 and R4 on benzene ring, or electron-withdrawing group substitutes derivatives of R2 on benzene ring, such as compound 4. (R1═F and R4═F), compound 6 (R2═CF3), compound 9 (R2═CN) and compound 16 (R1═F and R4═F), (3) compound 4 (R1═F and R4═F) and compound 6 (R2═CF3), a cyclic derivate compound 16 (R1═F and R4═F) and compound 18 (R2═CF3), the inhibitory activity would be stronger.

[2] = system: NO production; assay: Measurement of NO concentrations (Griess reaction) in porcine chondrocytes; assay type: cell-based; conditions: Sus scrofa, Chondrocyte, nitrite in supernatants, read-out: anti-inflammatory IC50 (μM) on NO production
Experimental: Porcine cartilage was obtained from the hind leg joints of pigs. The synthesis of chondrocytes from cartilage was performed according to our previous report. After enzymatic digestion of articular cartilage with 2 mg/mL protease in serum-free Dulbecco's modified Eagle's medium (DMEM)/antibiotics, the specimens were then digested overnight with 2 mg/mL collagenase I and 0.9 mg/ml, hyaluronidase in DMEM containing 10% fetal bovine serum (FBS). The cells were collected, passed through a cell strainer (Becton Dickinson, Mountain View, Calif., USA), and cultured in DMEM containing 10% […] and antibiotics for 3-4 days before use.
The measurement of NO release was reflected by determination of its stable end product, nitrite, in supernatants. The Griess reaction was performed with the concentrations of nitrite measured by a spectrophotometer. In brief, an aliquot (100 μL) of culture supernatant was incubated with 50 μL of 0.1% sulfanilamide in 5% phosphoric acid and 50 μL of 0.1% N-1-naphthyl-ethylenediamine dihydrochloride. After 10 min of incubation at room temperature, the absorbance was measured at 550 nm wavelength with a plate reader (recall, Grodig, […]).

[3] = system: RANKL-induced resorption of osteoclast (RAW264.7 cells); assay: Pit formation assay (bone resorption activity); assay type: cell-based, murine; conditions: 5 μM, dentine slices, 4 days, FIG. 1B
Experimental: as §1
By using pit formation assay, compounds 4 and 16 have effect on inhibition of resorption of osteoclast. RAW264.7 cells were cultured without compounds (compound 4 or compound 16, 5 μM) or treated with compounds (compound 4 or compound 16, 5 μM) in 24 well dentine slices plates in the presence of RANKL after 4 days, to identify the ability of resorption of osteoclast by observing the resorption pits formation. […] It was obvious that compound 4 or 16 could inhibit the RANKL-induced resorption of osteoclast (FIG. 3A to D).

[4] = MTT assay, RAW264.7 cell viability; assay type: cell-based; conditions: mouse; RAW 264.7 cells; cytotoxic concentration that produces 50% cell death
Experimental: as §1, §2

[5] = system: RAW 264.7 cells; assay: MTT assay, RAW264.7 cell viability; assay type: cell-based; conditions: MTT assay, compounds at 5 μM
Experimental: as §1, §2

Compound `O=C(Nc1cc(F)ccc1F)c1cc(-c2ccc(F)cc2F)ccc1O` [compound 4, N-(2,5-difluorophenyl)-2′,4′-difluoro-4-hydroxy-[1,1′-biphenyl]-3-carboxamide] has an inhibition at 5 µM [1] of 67.3 ± 4.38%, an IC50 [1] of 3.89 µM and an IC50 [2] of 0.71 µM. For the same compound, the “resorbed area compared to the cell cultured without drug in the presence of RANKL” value [3] was 23.11±2.25%, the CC50 [4] was 14.6 µM and the “Cell viability (%)” value [5] was 102.46 ± 1.10%.
For `O=c1oc2ccc(-c3ccc(F)cc3F)cc2c(=O)n1-c1cc(F)ccc1F` [compound 16, 6-(2,4-difluorophenyl)-3-(2,5-difluorophenyl)-2H-benzo[e][1,3]oxazine-2,4(3H)-dione], the inhibition at 5 µM [1] was 86.8 ± 1.74%, the IC50 [1] was under 2.5 µM and the IC50 [2] was 1.15 µM. For the same compound, the “resorbed area compared to the cell cultured without drug in the presence of RANKL” value [3] was 20.11±1.51%, the CC50 [4] was 10.8 µM and the “Cell viability (%)” value [5] was 86.60 ± 5.69%.
`O=c1oc2ccc(-c3ccc(F)cc3F)cc2c(=O)n1-c1cccc(C(F)(F)F)c1` [compound 18, 6-(2,4-difluorophenyl)-3-(3-(trifluoromethyl)phenyl)-2H-benzo[e][1,3]oxazine-2,4(3H)-dione] gave an inhibition at 5 µM [1] of 62.9 ± 2.65%, an IC50 [2] of 0.55 µM and a CC50 [4] of 13 µM. The “Cell viability (%)” value [5] was 100.13 ± 0.94%.
`COc1ccc(NC(=O)c2cc(-c3ccc(F)cc3F)ccc2O)cc1OC` [compound 11, N-(3,4-dimethoxyphenyl)-2′,4′-difluoro-4-hydroxy-[1,1′-biphenyl]-3-carboxamid] showed an inhibition at 5 µM [1] of 51.9 ± 6.5%, an IC50 [2] of 1.5 µM and a CC50 [4] of over 20 µM. For the same compound, the “Cell viability (%)” value [5] was 98.87 ± 2.06%.
For `O=c1oc2ccc(-c3ccc(F)cc3F)cc2c(=O)n1-c1ccc(Cl)cc1F` [compound 13, 3-(4-chloro-2-fluorophenyl)-6-(2,4-difluorophenyl)-2H-benzo[e][1,3]oxazine-2,4(3H)-dione], the inhibition at 5 µM [1] was 19.4 ± 1.4%, the IC50 [2] was 1.08 µM and the CC50 [4] was over 20 µM. For the same compound, the “Cell viability (%)” value [5] was 96.22 ± 0.53%.
With `O=c1oc2ccc(-c3ccc(F)cc3F)cc2c(=O)n1-c1ccc(F)cc1F` [compound 14, 3,6-bis(2,4-difluorophenyl)-2H-benzo[e][1,3]oxazine-2,4(3H)-dione] the inhibition at 5 µM [1] was 42.3 ± 6.62%, the IC50 [2] was 1.26 µM and the CC50 [4] was 12.7 µM. For the same compound, the “Cell viability (%)” value [5] was 96.49 ± 1.86%.
With `O=C(Nc1ccc(F)cc1F)c1cc(-c2ccc(F)cc2F)ccc1O` [compound 2, N-(2,4-difluorophenyl)-2′,4′-difluoro-4-hydroxybiphenyl-3-carboxamide] the inhibition at 5 µM [1] was 32.2 ± 5.58%, the IC50 [2] was 0.95 µM and the CC50 [4] was over 20 µM. For the same compound, the “Cell viability (%)” value [5] was 109.62 ± 3.37%.
In the case of `O=C(Nc1cccc(C(F)(F)F)c1)c1cc(-c2ccc(F)cc2F)ccc1O` [compound 6, 2′,4′-difluoro-4-hydroxy-N-(3-(trifluoromethyl)phenyl)[1,1′-biphenyl]-3-carboxamide], the inhibition at 5 µM [1] is reported as 59.2 ± 2.28%, the IC50 [2] is reported as 0.71 µM and the CC50 [4] is reported as 14.3 µM. The “Cell viability (%)” value [5] was 96.73 ± 1.18%.
In the case of `C#Cc1cccc(NC(=O)c2cc(-c3ccc(F)cc3F)ccc2O)c1` [compound 8, N-(3-ethynylphenyl)-2′,4′-difluoro-4-hydroxy-[1,1′-biphenyl]-3-carboxamide], the inhibition at 5 µM [1] is reported as 40.6 ± 2.01%, the IC50 [2] is reported as 2.45 µM and the CC50 [4] is reported as over 20 µM. For the same compound, the “Cell viability (%)” value [5] was 62.95 ± 0.85%.
Compound `N#Cc1cccc(-n2c(=O)oc3ccc(-c4ccc(F)cc4F)cc3c2=O)c1` [compound 21, 3-(6-(2,4-difluorophenyl)-2,4-dioxo-2H-benzo[e][1,3]oxazin-3(4H)-yl)benzonitrile] has an inhibition at 5 µM [1] of 34 ± 6.98%, an IC50 [2] of over 10 µM and a CC50 [4] of 14.9 µM. The “Cell viability (%)” value [5] was 102.79 ± 1.93%.
In the case of `N#Cc1cccc(NC(=O)c2cc(-c3ccc(F)cc3F)ccc2O)c1` [compound 9, N-(3-cyanophenyl)-2′,4′-difluoro-4-hydroxy-[1,1′-biphenyl]-3-carboxamide], the inhibition at 5 µM [1] is reported as 71.3 ± 3.39%, the IC50 [2] is reported as over 10 µM and the CC50 [4] is reported as 12.3 µM. For the same compound, the “Cell viability (%)” value [5] was 72.15 ± 0.36%.
With `COc1cccc(-n2c(=O)oc3ccc(-c4ccc(F)cc4F)cc3c2=O)c1` [compound 24, 6-(2,4-difluorophenyl)-3-(3-methoxyphenyl)-2H-benzo[e][1,3]oxazine-2,4(3H)-dione] the inhibition at 5 µM [1] was 30.8 ± 5.77%, the IC50 [2] was 1.95 µM and the CC50 [4] was over 20 µM. For the same compound, the “Cell viability (%)” value [5] was 105.53 ± 4.7%.
